Results published in ChEMBL document CHEMBL5154753, “Discovery and Structural Optimization of Toddacoumalone Derivatives as Novel PDE4 Inhibitors for the Topical Treatment of Psoriasis” (J Med Chem, 2022).
In brackets after ≈: the same amount, converted by molar mass. Activity calls are given as the source filed them. The calls are words filed in the database; no cut-off is given here.

Experiments:
[1] = organism: Mus musculus; assay: Anti-psoriatic activity in IMQ-induced BALB/c psoriasis mouse model assessed as reduction in epidermal cell proliferation at 62.5 mg as 4% ointment, TOP daily for 7 days by Ki67+ expression based immunohistochemistry analysis; format: functional, organism-based; details: time 7.0 day
[2] = organism: Mus musculus; assay: Anti-psoriatic activity in IMQ-induced BALB/c psoriasis mouse model assessed as reduction in thickness score at 62.5 mg as 2% ointment, TOP daily and measured upto 7 days; format: functional, organism-based; details: time <= 7.0 day, DDE = dose-dependent effect
[3] = Toxicity in IMQ-induced BALB/c psoriasis mouse model assessed as body weight loss at 62.5 mg as 2% ointment, TOP daily and measured upto 7 days; details: in vivo, topical_or_ocular, 168 h, time < 7 day
[4] = organism: Mus musculus; assay: Anti-psoriatic activity in IMQ-induced BALB/c psoriasis mouse model assessed as reduction IMQ- induced immune response by measuring spleen weight loss at 62.5 mg as 2% ointment, TOP daily and measured upto 7 days; format: functional, organism-based; details: time <= 7.0 day
[5] = Toxicity in BALB/c mouse assessed as skin lesions at 62.5 mg as 2% ointment, TOP daily and measured upto 7 days; details: in vivo, topical_or_ocular, 168 h, time < 7 day
[6] = Stability in mouse liver microsomes assessed as half life measure upto 45 mins in presence of NADPH by LC-MS analysis; format: ADME, Microsome
[7] = AUC (0 to infinity) in ICR mouse at 10 mg/kg, iv measured upto 24 hrs by LC-MS/MS analysis; format: ADME, organism-based; parameters: time < 24 hrs, dose 10 mg/kg, route iv; details: in vivo
[8] = organism: Mus musculus; assay: Anti-psoriatic activity in IMQ-induced BALB/c psoriasis mouse model assessed as reduction in scales score at 62.5 mg as 2% ointment, TOP daily and measured upto 7 days; format: functional, organism-based; details: time <= 7.0 day, DDE = dose-dependent effect
[9] = target: High affinity cAMP-specific and IBMX-insensitive 3',5'-cyclic phosphodiesterase 8A (Homo sapiens, UniProt O60658); assay: Inhibition of PDE8A1 (480 to 820 residues) (unknown origin) expressed in Escherichia coli BL21 using [3H-GMP] or [3H-AMP] as substrate incubated for 15 mins by liquid scintillation counting method
Chain of High affinity cAMP-specific and IBMX-insensitive 3',5'-cyclic phosphodiesterase 8A (O60658 whole entry, the tested form may be a part): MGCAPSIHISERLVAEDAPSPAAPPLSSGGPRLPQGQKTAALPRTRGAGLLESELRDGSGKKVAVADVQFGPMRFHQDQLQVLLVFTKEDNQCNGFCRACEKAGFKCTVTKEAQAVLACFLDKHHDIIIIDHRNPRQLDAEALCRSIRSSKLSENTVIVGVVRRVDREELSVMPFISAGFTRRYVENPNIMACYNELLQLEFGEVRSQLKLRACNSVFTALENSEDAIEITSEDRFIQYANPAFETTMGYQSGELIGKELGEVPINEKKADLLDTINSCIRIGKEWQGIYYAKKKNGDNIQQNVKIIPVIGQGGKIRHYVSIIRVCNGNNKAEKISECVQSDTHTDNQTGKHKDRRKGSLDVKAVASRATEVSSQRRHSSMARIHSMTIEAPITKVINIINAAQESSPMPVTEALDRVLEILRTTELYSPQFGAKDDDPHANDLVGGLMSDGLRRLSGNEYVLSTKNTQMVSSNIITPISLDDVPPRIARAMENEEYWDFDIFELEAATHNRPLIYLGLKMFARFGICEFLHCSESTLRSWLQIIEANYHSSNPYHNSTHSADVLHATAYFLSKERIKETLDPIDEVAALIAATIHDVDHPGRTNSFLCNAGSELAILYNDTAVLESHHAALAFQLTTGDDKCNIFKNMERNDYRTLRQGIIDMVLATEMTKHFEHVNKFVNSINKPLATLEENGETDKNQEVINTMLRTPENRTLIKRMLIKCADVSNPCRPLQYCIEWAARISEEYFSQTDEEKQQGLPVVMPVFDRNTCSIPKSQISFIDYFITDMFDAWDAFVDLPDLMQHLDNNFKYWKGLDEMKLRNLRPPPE

[10] = system: RAW264.7; assay: Anti-inflammatory activity against mouse RAW264.7 cells assessed as decrease in LPS-induced TNF-alpha mRNA levels incubated for 4 hrs followed LPS-stimulation for 24 hrs by SYBR green staining based qRT-PCR analysis; format: functional, cell-based; details: time 28.0 hrs, DDE = dose-dependent effect
[11] = C0 in ICR mouse at 10 mg/kg, iv measured upto 24 hrs by LC-MS/MS analysis; format: ADME, organism-based; details: in vivo
[12] = target: cAMP and cAMP-inhibited cGMP 3',5'-cyclic phosphodiesterase 10A (Homo sapiens, UniProt Q9Y233); assay: Inhibition of PDE10A2 (449 to 770 residues) (unknown origin) expressed in Escherichia coli BL21 using [3H-GMP] or [3H-AMP] as substrate incubated for 15 mins by liquid scintillation counting method
Chain of cAMP and cAMP-inhibited cGMP 3',5'-cyclic phosphodiesterase 10A (Q9Y233 whole entry, the tested form may be a part): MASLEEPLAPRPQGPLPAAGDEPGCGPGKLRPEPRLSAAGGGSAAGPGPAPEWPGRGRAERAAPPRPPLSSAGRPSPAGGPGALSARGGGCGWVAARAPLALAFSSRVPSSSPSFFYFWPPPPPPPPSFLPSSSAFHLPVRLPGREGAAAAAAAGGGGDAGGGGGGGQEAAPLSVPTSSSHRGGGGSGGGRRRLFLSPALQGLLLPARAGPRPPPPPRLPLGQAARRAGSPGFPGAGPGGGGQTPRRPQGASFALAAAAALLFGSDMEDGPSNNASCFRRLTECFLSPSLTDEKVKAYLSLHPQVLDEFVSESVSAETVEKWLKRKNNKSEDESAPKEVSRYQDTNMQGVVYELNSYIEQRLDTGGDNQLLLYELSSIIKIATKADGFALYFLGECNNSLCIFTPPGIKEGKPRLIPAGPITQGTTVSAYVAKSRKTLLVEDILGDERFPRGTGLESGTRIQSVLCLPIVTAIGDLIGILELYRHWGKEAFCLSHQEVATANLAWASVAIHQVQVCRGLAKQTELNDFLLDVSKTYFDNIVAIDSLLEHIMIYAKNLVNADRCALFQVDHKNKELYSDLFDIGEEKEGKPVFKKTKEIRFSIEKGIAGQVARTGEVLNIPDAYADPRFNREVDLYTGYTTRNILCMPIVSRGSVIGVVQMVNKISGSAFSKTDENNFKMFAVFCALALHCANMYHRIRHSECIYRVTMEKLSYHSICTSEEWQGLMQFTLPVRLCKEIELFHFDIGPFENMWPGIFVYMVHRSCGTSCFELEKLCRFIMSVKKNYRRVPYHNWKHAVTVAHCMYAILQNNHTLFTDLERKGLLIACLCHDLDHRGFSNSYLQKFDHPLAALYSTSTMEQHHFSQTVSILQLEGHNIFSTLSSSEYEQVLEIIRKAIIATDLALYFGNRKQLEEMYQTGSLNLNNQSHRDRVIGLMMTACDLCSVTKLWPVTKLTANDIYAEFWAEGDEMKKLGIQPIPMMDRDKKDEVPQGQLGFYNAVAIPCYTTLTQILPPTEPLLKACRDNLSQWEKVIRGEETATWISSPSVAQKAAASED

[13] = target: cGMP-inhibited 3',5'-cyclic phosphodiesterase 3A (Homo sapiens, UniProt Q14432); assay: Inhibition of PDE3A (679 to 1087 residues) (unknown origin) expressed in Escherichia coli BL21 using [3H-GMP] or [3H-AMP] as substrate incubated for 15 mins by liquid scintillation counting method
Chain of cGMP-inhibited 3',5'-cyclic phosphodiesterase 3A (Q14432 whole entry, the tested form may be a part): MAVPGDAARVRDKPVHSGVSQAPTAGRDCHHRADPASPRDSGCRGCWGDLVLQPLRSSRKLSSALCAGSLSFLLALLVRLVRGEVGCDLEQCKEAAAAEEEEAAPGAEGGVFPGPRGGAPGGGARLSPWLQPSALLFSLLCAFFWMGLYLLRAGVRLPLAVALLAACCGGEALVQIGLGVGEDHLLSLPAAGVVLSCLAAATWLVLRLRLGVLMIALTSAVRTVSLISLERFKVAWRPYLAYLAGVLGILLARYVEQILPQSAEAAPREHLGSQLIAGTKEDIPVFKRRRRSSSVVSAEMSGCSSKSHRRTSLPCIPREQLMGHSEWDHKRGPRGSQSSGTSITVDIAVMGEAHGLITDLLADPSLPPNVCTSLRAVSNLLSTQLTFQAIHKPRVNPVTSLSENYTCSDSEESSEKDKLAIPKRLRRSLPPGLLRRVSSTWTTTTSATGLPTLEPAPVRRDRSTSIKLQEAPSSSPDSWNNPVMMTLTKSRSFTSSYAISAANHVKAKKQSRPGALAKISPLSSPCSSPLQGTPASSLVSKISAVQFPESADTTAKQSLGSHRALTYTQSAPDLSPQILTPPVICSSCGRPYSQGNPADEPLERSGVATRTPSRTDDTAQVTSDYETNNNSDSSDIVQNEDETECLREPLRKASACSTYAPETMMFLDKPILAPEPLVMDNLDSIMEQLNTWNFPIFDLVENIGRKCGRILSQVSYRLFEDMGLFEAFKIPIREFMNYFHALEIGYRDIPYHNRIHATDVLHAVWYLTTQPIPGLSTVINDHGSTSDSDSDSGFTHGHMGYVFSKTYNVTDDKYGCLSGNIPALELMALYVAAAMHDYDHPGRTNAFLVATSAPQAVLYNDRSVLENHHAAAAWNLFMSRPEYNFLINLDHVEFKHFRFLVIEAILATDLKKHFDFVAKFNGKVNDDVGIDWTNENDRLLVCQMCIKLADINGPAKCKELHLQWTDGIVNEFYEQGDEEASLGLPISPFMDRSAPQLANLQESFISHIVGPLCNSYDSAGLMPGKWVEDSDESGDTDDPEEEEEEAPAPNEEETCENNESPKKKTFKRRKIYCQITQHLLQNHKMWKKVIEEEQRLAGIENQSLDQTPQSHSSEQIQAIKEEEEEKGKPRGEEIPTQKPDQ

[14] = system: RAW264.7; assay: Cytotoxicity against mouse RAW264.7 cells assessed as cell viability incubated for 48 hrs; format: toxicity, cell-based; details: raw264.7, 48 h
[15] = Toxicity in IMQ-induced BALB/c psoriasis mouse model assessed as body weight loss at 62.5 mg as 4% ointment, TOP daily and measured upto 7 days; details: in vivo, topical_or_ocular, 168 h, time < 7 day
[16] = system: Mus musculus; assay: Anti-psoriatic activity in IMQ-induced BALB/c psoriasis mouse model assessed as reduction IMQ- induced immune response by measuring change in spleen weight at 10 mg/kg, po for 7 days; format: functional, organism-based; details: time 7.0 day
[17] = system: Mus musculus; assay: Anti-psoriatic activity in IMQ-induced BALB/c psoriasis mouse model assessed as reduction in scales score at 10 mg/kg, po for 7 days; format: functional, organism-based; details: time 7.0 day
[18] = AUC (0 to infinity) in ICR mouse at 30 mg/kg, po measured upto 24 hrs by LC-MS/MS analysis; format: ADME, organism-based; parameters: dose 30 mg/kg, time < 24 hrs, route po; details: in vivo
[19] = Toxicity in BALB/c mouse assessed as body weight loss at 62.5 mg as 2% ointment, TOP daily and measured upto 7 days; details: in vivo, topical_or_ocular, 168 h, time < 7 day
[20] = AUC (0 to t) in ICR mouse at 10 mg/kg, iv measured upto 24 hrs by LC-MS/MS analysis; format: ADME, organism-based; parameters: dose 10 mg/kg, time < 24 hrs, route iv; details: in vivo
[21] = organism: Mus musculus; assay: Anti-psoriatic activity in IMQ-induced BALB/c psoriasis mouse model assessed as change in skin thickness at 62.5 mg as 4% ointment, TOP daily for 7 days by hematoxylin and eosin staining based confocal laser scanning microscopy; format: functional, organism-based; details: time 7.0 day
[22] = organism: Mus musculus; assay: Anti-psoriatic activity in IMQ-induced BALB/c psoriasis mouse model assessed as reduction in dermal cell proliferation at 62.5 mg as 4% ointment, TOP daily for 7 days by Ki67+ expression based immunohistochemistry analysis; format: functional, organism-based; details: time 7.0 day
[23] = organism: Mus musculus; assay: Anti-psoriatic activity in IMQ-induced BALB/c psoriasis mouse model assessed as reduction in erythema score at 62.5 mg as 4% ointment, TOP daily and measured upto 7 days; format: functional, organism-based; details: time <= 7.0 day, DDE = dose-dependent effect
[24] = target: 3',5'-cyclic-AMP phosphodiesterase 4B (Homo sapiens, UniProt Q07343); assay: Inhibition of PDE4B2 (152 to 487 residues) (unknown origin) expressed in Escherichia coli BL21 using [3H-GMP] or [3H-AMP] as substrate incubated for 15 mins by liquid scintillation counting method
Chain of 3',5'-cyclic-AMP phosphodiesterase 4B (Q07343 whole entry, the tested form may be a part): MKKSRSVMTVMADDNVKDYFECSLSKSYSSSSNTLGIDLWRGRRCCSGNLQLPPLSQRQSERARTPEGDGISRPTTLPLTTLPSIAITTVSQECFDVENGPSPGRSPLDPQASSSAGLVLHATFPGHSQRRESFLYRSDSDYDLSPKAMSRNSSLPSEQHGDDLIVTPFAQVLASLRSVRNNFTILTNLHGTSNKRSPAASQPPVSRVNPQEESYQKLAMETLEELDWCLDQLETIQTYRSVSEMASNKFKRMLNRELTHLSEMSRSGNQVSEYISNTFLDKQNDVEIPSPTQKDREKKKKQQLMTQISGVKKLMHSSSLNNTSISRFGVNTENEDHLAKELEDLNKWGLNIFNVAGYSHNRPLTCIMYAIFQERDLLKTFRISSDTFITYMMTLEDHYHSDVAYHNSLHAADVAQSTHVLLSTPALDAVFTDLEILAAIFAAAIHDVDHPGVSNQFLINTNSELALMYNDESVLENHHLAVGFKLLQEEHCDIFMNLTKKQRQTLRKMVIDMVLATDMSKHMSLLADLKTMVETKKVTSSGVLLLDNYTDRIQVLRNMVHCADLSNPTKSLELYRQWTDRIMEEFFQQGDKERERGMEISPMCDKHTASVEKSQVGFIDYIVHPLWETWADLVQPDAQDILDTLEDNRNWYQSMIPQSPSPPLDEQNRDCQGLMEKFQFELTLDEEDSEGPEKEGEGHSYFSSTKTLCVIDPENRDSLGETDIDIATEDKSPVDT

[25] = organism: Mus musculus; assay: Anti-psoriatic activity in IMQ-induced BALB/c psoriasis mouse model assessed as reduction IMQ- induced immune response by measuring spleen weight loss at 62.5 mg as 4% ointment, TOP daily and measured upto 7 days; format: functional, organism-based; details: time <= 7.0 day
[26] = organism: Mus musculus; assay: Anti-psoriatic activity in IMQ-induced BALB/c psoriasis mouse model assessed as reduction in erythema score at 62.5 mg as 2% ointment, TOP daily and measured upto 7 days; format: functional, organism-based; details: time <= 7.0 day, DDE = dose-dependent effect
[27] = Aqueous solubility of compound by HPLC analysis; format: physicochemical; details: buffer
[28] = system: Mus musculus; assay: Anti-psoriatic activity in IMQ-induced BALB/c psoriasis mouse model assessed as reduction in thickness score at 10 mg/kg, po for 7 days; format: functional, organism-based; details: time 7.0 day
[29] = Oral bioavailability in ICR mouse at 30 mg/kg measured upto 24 hrs by LC-MS/MS analysis; format: ADME, organism-based; details: in vivo
[30] = Toxicity in BALB/c mouse assessed as skin lesions at 62.5 mg as 4% ointment, TOP daily and measured upto 7 days; details: in vivo, topical_or_ocular, 168 h, time < 7 day
[31] = Volume of distribution at steady state in ICR mouse at 10 mg/kg, iv measured upto 24 hrs by LC-MS/MS analysis; format: ADME, organism-based; details: in vivo, read-out: Vdss
[32] = organism: Mus musculus; assay: Anti-psoriatic activity in IMQ-induced BALB/c psoriasis mouse model assessed as reduction in epidermal cell proliferation at 62.5 mg as 2% ointment, TOP daily for 7 days by Ki67+ expression based immunohistochemistry analysis; format: functional, organism-based; details: time 7.0 day
[33] = organism: Mus musculus; assay: Anti-psoriatic activity in IMQ-induced BALB/c psoriasis mouse model assessed as reduction in thickness score at 62.5 mg as 4% ointment, TOP daily and measured upto 7 days; format: functional, organism-based; details: time <= 7.0 day, DDE = dose-dependent effect
[34] = organism: Mus musculus; assay: Anti-psoriatic activity in IMQ-induced BALB/c psoriasis mouse model assessed as change in skin thickness at 62.5 mg as 2% ointment, TOP daily for 7 days by hematoxylin and eosin staining based confocal laser scanning microscopy; format: functional, organism-based; details: time 7.0 day

In the case of `CCn1c(=O)c2c(c3ccc(C)nc31)O[C@@](C)(CCO)C[C@H]2C=C(C)C`, the Activity [1] is reported as “Active”, the Activity [2] is reported as “Dde” and the Activity [3] is reported as “Non-Toxic”. The Activity [4] was “Active”, the Activity [5] was “Non-Toxic” and the half-life [6] was 1.3 min. For the same molecule, the AUC(0-inf) [7] was 2620 ng·h/mL, the Activity [8] was “Dde” and the IC50 [9] was 820 nM. The Activity [10] was “Dde”, the C0 at 24 h [11] was 20600 ng/mL and the IC50 [12] was 1760 nM. For the same molecule, the IC50 [13] was > 10000 nM, the Activity [14] was “Non-Toxic” and the Activity [15] was “Non-Toxic”. For the same molecule, the Activity [16] was “Active”, the Activity [17] was “Active” and the AUC(0-inf) [18] was 1200 ng·h/mL. The Activity [19] was “Non-Toxic”, the AUC(0-t) at 24 h [20] was 2610 ng·h/mL and the Activity [21] was “Active”. For the same molecule, the Activity [22] was “Active”, the Activity [23] was “Dde” and the IC50 [24] was 3.2 nM. For the same molecule, the Activity [25] was “Active”, the Activity [26] was “Dde” and the solubility [27] was 10 µg/mL (≈ 28.1 µM). The Activity [28] was “Active”, the bioavailability [29] was 14.4% and the Activity [30] was “Non-Toxic”. The Vd [31] was 0.77 L/kg, the Activity [32] was “Active” and the Activity [33] was “Dde”. The Activity [34] was “Active”.
